Series [1] in a line: Plasma protein binding assay, human plasma (hPPB). The format is in vitro ADME. Particulars: 5 μM. The method in brief:
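Equilibrium dialysis of 5 μM compound in previously frozen human or mouse plasma against phosphate buffer, 4 h at 37 °C. Both chambers quantified by LC-MS/MS; % free = (1−((PC−PF)/PC))×100.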

The subject of series [2] is BRAF monomers in A375 cells. The series can be described thus: A375 AlphaLISA SureFire pERK1/2 cellular assay (monomer). The format is cell-based. Particulars: Homo sapiens, A-375; A375 cells, 1 hr; read-out: pERK A375 (1 hr) pIC50 (converted). The method in brief:
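BRAF^V600E A375 melanoma cells seeded at 30,000/well in DMEM with 10% FBS, dosed without medium exchange in a 10-point series from 10 μM at 1/2-log steps, 1 h at 37 °C. Phospho-ERK1/2 (Thr202/Tyr204) measured in lysates by AlphaLISA SureFire; absolute IC50 relative to DMSO control.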

Series [3] concerns RAF dimers in HCT-116 cells. The series can be described thus: HCT-116 AlphaLISA SureFire pERK1/2 cellular assay (dimer). The format is cell-based. Particulars: Homo sapiens. The procedure, abridged:
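HCT-116 (KRAS G13D) cells, 30,000/well, pretreated 1 h with 1 μM Encorafenib to induce RAF dimers, washed, then dosed 1 h at 37° C with compound (10-point, top 10 μM, 1/2 log steps) in growth medium. pERK1/2 (T202/Y204) measured by AlphaLISA SureFire; absolute IC50 versus DMSO control.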

Where [4] appears, read: equilibrium dialysis 4 hours 37° C.
The mark [5] stands for this setting: HCT-116, HCT116 cells pre-dosed with 1 μM Encorafenib, 1 hr, read-out: pERK HCT116 dimer (1 hr) pIC50 (converted).
Where [6] appears, read: equilibrium dialysis 4 hours at 37° C.
The mark [7] stands for this setting: HCT-116, HCT116 cells, dimer, 1 hr, read-out: pERK HCT116 dimer (1 hr) plC50 (converted).

Counter-ions that a name gives are not always drawn. Like-named read-outs stand apart in the source and are kept apart here.

The source of these data is US12304912B2, “Fused bicyclic RAF inhibitors and methods for use thereof” (Jazz Pharmaceuticals Ireland Limited, priority 2020, dated 2025).

`O=C1CCc2c(Oc3ccc4c(c3)CC(c3nc5cc(C(F)(F)F)ncc5[nH]3)CO4)ccnc2N1` (racemic) [Compound 32]: the “hPPB (% free)” value in series [1] (setting [4]) was found to be 1.3 % free. In addition, the results for the IC50 in series [2] and in series [3] (setting [5]) were 0.251 µM and 0.398 µM, respectively.

In the case of `O=C(Nc1cc(Oc2ccc3c(c2)CC(c2nc(-c4ccccc4)c[nH]2)CO3)ccn1)C1CC1` (racemic) [Compound 136], the “hPPB (% free)” value in series [1] (setting [6]) is recorded as 0.2 % free. Besides, the IC50 in series [2] was 0.162 µM; in series [3] (setting [7]) it was 0.0891 µM.

Take `O=C1CCc2c(Oc3ccc4c(c3)CC(c3nc(-c5ccnc(C(F)(F)F)c5)c[nH]3)CO4)ccnc2N1` (stereo not drawn) [Compound 8, 5-[3-[4-[2-(trifluoromethyl)-4-pyridyl]-1H-imidazol-2-yl]chroman-6-yl]oxy-3,4-dihydro-1H-1,8-naphthyridin-2-one]: the “hPPB (% free)” value in series [1] (setting [4]) and in series [1] (setting [6]) was 1.0 % free each time. Moreover, the IC50 in series [2] is 0.316 µM; in series [3] (setting [5]) it was 0.269 µM; in series [3] (setting [7]), 0.269 µM.

On to `O=C1CCc2c(Oc3ccc4c(c3)CC(c3nc(-c5cccc(C(F)(F)F)c5)c[nH]3)CO4)ccnc2N1` (stereo not drawn) [Compound 12, 5-[3-[4-[3-(trifluoromethyl)phenyl]-1H-imidazol-2-yl]chroman-6-yl]oxy-3,4-dihydro-1H-1,8-naphthyridin-2-one], for which the “hPPB (% free)” value in series [1] (setting [4]) is recorded as less than 0.1 % free. The IC50 in series [2] was 0.0427 µM; in series [3] (setting [5]) it was 0.229 µM.

As to `COc1cc(-c2c[nH]c(C3COc4ccc(Oc5ccnc6c5CCC(=O)N6)cc4C3)n2)ccn1` (stereo not drawn) [Compound 19, 5-[3-[4-(2-methoxy-4-pyridyl)-1H-imidazol-2-yl]chroman-6-yl]oxy-3,4-dihydro-1H-1,8-naphthyridin-2-one], the “hPPB (% free)” value in series [1] (setting [4]) is listed as 1.9 % free. For the same compound, the IC50 was 1.62 µM in series [2] and 0.347 µM in series [3] (setting [5]).

Take `O=C1CCc2c(Oc3ccc4c(c3)CC(c3nc5cc(C(F)(F)F)ccc5[nH]3)CO4)ccnc2N1` (stereo not drawn) [Compound 22, 5-[3-[6-(trifluoromethyl)-1H-benzimidazol-2-yl]chroman-6-yl]oxy-3,4-dihydro-1H-1,8-naphthyridin-2-one]: the “hPPB (% free)” value in series [1] (setting [4]) is given as less than 0.1 % free. Also, the IC50 in series [2] is 0.02 µM; in series [3] (setting [5]), 0.155 µM.

On to `O=C1CCc2c(Oc3ccc4c(c3)CC(c3nc5cc(F)c(F)cc5[nH]3)CO4)ccnc2N1` (stereo not drawn) [Compound 23], for which, in series [1] (setting [4]), the “hPPB (% free)” value was 0.5 % free. Moreover, the IC50 is 0.257 µM in series [2] and 0.224 µM in series [3] (setting [5]).

`N#Cc1ccc2[nH]c(C3COc4ccc(Oc5ccnc6c5CCC(=O)N6)cc4C3)nc2c1` (stereo not drawn) [Compound 24]: in series [1] (setting [4]), the “hPPB (% free)” value was determined as 1.8 % free. Moreover, the IC50 was 0.562 µM in series [2] and 0.155 µM in series [3] (setting [5]).

As for `O=C1CCc2c(Oc3ccc4c(c3)CC(c3nc5cc(Cl)ccc5[nH]3)CO4)ccnc2N1` (stereo not drawn) [Compound 25], in series [1] (setting [4]), the “hPPB (% free)” value is 0.3 % free. In addition, the IC50 in series [2] and in series [3] (setting [5]) was 0.115 µM each time.

For `CN(C)c1ccc2[nH]c(C3COc4ccc(Oc5ccnc6c5CCC(=O)N6)cc4C3)nc2c1` (stereo not drawn) [Compound 26], in series [1] (setting [4]), the “hPPB (% free)” value amounted to 0.7 % free. Also, the IC50 in series [2] was 0.0646 µM; in series [3] (setting [5]) it was 0.275 µM.

Take `Cc1cc2nc(C3COc4ccc(Oc5ccnc6c5CCC(=O)N6)cc4C3)[nH]c2cc1C` (stereo not drawn) [Compound 29]: the “hPPB (% free)” value in series [1] (setting [4]) was 0.2 % free. In addition, the values for the IC50 in series [2] and in series [3] (setting [5]) were 0.0324 µM and 0.219 µM, respectively.

As for `O=C1CCc2c(Oc3ccc4c(c3)CN(c3nc(-c5ccccc5)n[nH]3)CC4)ccnc2N1` [Compound 44, 5-[[2-(3-phenyl-1H-1,2,4-triazol-5-yl)-3,4-dihydro-1H-isoquinolin-7-yl]oxy]-3,4-dihydro-1H-1,8-naphthyridin-2-one hydrochloride], the “hPPB (% free)” value in series [1] (setting [4]) was 0.3 % free. Also, the IC50 was 1.2 µM in series [2] and 0.288 µM in series [3] (HCT-116, 1 h, read-out: pERK HCT116 dimer (1 hr) pIC50 (converted)).

Turning to `O=C(Nc1cc(Oc2ccc3c(c2)CC(c2nc(-c4ccccc4)c[nH]2)CO3)ccn1)C1CC1` (stereo not drawn) [Compound 45, N-[4-[3-(4-phenyl-1H-imidazol-2-yl)chroman-6-yl]oxy-2-pyridyl]cyclopropanecarboxamide], the “hPPB (% free)” value in series [1] (setting [4]) amounted to 0.2 % free. Besides, the IC50 in series [2] is 0.162 µM; in series [3] (setting [5]), 0.0891 µM.

On to `O=C1CCc2c(Oc3ccc4c(c3)CN(C(=O)Nc3ccc(C(F)(F)F)cc3)CC4)ccnc2N1` [Compound 47], for which the “hPPB (% free)” value in series [1] (setting [4]) is 0.7 % free. Moreover, the IC50 in series [2] was 0.229 µM; in series [3] (setting [5]), 0.0646 µM.

As to `O=C1CCc2c(Oc3ccc4c(c3)CN(C(=O)Nc3cccc(C(F)(F)F)c3)CC4)ccnc2N1` [Compound 50], the “hPPB (% free)” value in series [1] (setting [4]) was found to be 1.2 % free. Besides, the IC50 was 0.269 µM in series [2] and 0.0646 µM in series [3] (setting [5]).

For `O=C1CCc2c(Oc3ccc4c(c3)CC(c3nc(-c5ccnc(C(F)F)c5)c[nH]3)CO4)ccnc2N1` (stereo not drawn) [Compound 101, 5-[3-[4-[2-(difluoromethyl)-4-pyridyl]-1H-imidazol-2-yl]chroman-6-yl]oxy-3,4-dihydro-1H-1,8-naphthyridin-2-one], the “hPPB (% free)” value in series [1] (setting [6]) worked out at 1.6 % free. Also, the IC50 in series [2] is 0.204 µM; in series [3] (setting [7]), 0.0631 µM.

With `O=C1CCc2c(Oc3ccc4c(c3)CC(c3nc(-c5cncc(C(F)(F)F)c5)c[nH]3)CO4)ccnc2N1` (stereo not drawn) [Compound 103, 5-[3-[4-[5-(trifluoromethyl)-3-pyridyl]-1H-imidazol-2-yl]chroman-6-yl]oxy-3,4-dihydro-1H-1,8-naphthyridin-2-one], in series [1] (setting [6]), the “hPPB (% free)” value worked out at 0.6 % free. The IC50 in series [2] was 0.389 µM; in series [3] (setting [7]) it was 0.107 µM.

With `COc1cc(-c2c[nH]c(C3COc4ccc(Oc5ccnc6c5CCC(=O)N6)cc4C3)n2)ccn1` (stereo not drawn) [Compound 104], the “hPPB (% free)” value in series [1] (setting [6]) was found to be 1.9 % free. For the same compound, in series [3] (setting [7]), the IC50 is 0.347 µM.

For `O=C1CCc2c(Oc3ccc4c(c3)CC(c3nc(-c5cncc(C(F)F)c5)c[nH]3)CO4)ccnc2N1` (stereo not drawn) [Compound 105, 5-[3-[4-[5-(difluoromethyl)-3-pyridyl]-1H-imidazol-2-yl]chroman-6-yl]oxy-3,4-dihydro-1H-1,8-naphthyridin-2-one], the “hPPB (% free)” value in series [1] (setting [6]) is recorded as 1.0 % free. The IC50 was 0.417 µM in series [2] and 0.0646 µM in series [3] (setting [7]).

Consider `Cc1cc(-c2c[nH]c(C3COc4ccc(Oc5ccnc6c5CCC(=O)N6)cc4C3)n2)n(C)n1` (stereo not drawn) [Compound 106, 5-[3-[4-(2,5-dimethylpyrazol-3-yl)-1H-imidazol-2-yl]chroman-6-yl]oxy-3,4-dihydro-1H-1,8-naphthyridin-2-one], for which the “hPPB (% free)” value in series [1] (setting [6]) is listed as 2.4 % free. Moreover, the IC50 was 0.933 µM in series [2] and 0.123 µM in series [3] (setting [7]).

Take `Cn1nc(C(F)(F)F)cc1-c1c[nH]c(C2COc3ccc(Oc4ccnc5c4CCC(=O)N5)cc3C2)n1` (stereo not drawn) [Compound 107, 5-[3-[4-[2-methyl-5-(trifluoromethyl)pyrazol-3-yl]-1H-imidazol-2-yl]chroman-6-yl]oxy-3,4-dihydro-1H-1,8-naphthyridin-2-one]: the “hPPB (% free)” value in series [1] (setting [6]) is recorded as 0.7 % free. Further, the results for the IC50 in series [2] and in series [3] (setting [7]) were 0.178 µM and 0.0575 µM, respectively.

Take `Cc1ccc(-c2c[nH]c(C3COc4ccc(Oc5ccnc6c5CCC(=O)N6)cc4C3)n2)s1` (stereo not drawn) [Compound 110]: in series [1] (setting [6]), the “hPPB (% free)” value is 0.2 % free. Moreover, the IC50 is 0.107 µM in series [2] and 0.0501 µM in series [3] (setting [7]).

Consider `CCc1cc(-c2c[nH]c(C3COc4ccc(Oc5ccnc6c5CCC(=O)N6)cc4C3)n2)n(C)n1` (stereo not drawn) [Compound 111], for which the “hPPB (% free)” value in series [1] (setting [6]) worked out at 1.91 % free. Moreover, the IC50 in series [2] is 0.537 µM; in series [3] (setting [7]), 0.107 µM.

`Cc1cc(-c2c[nH]c(C3COc4ccc(Oc5ccnc6c5CCC(=O)N6)cc4C3)n2)n(C(C)C)n1` (stereo not drawn) [Compound 112, 5-[3-[4-(2-isopropyl-5-methyl-pyrazol-3-yl)-1H-imidazol-2-yl]chroman-6-yl]oxy-3,4-dihydro-1H-1,8-naphthyridin-2-one]: in series [1] (setting [6]), the “hPPB (% free)” value stood at 1.4 % free. Further, the IC50 in series [2] was 1.78 µM; in series [3] (setting [7]), 0.257 µM.

Take `CCc1cc(-c2c[nH]c(C3COc4ccc(Oc5ccnc6c5CCC(=O)N6)cc4C3)n2)n(C2CC2)n1` (stereo not drawn) [Compound 113, 5-[3-[4-(2-cyclopropyl-5-ethyl-pyrazol-3-yl)-1H-imidazol-2-yl]chroman-6-yl]oxy-3,4-dihydro-1H-1,8-naphthyridin-2-one]: the “hPPB (% free)” value in series [1] (setting [6]) is 0.6 % free. Also, the IC50 in series [2] was 4.68 µM; in series [3] (setting [7]), 0.513 µM.

With `Cc1cc(-c2c[nH]c(C3COc4ccc(Oc5ccnc6c5CCC(=O)N6)cc4C3)n2)n(C2CC2)n1` (stereo not drawn) [Compound 114, 5-[3-[4-(2-cyclopropyl-5-methyl-pyrazol-3-yl)-1H-imidazol-2-yl]chroman-6-yl]oxy-3,4-dihydro-1H-1,8-naphthyridin-2-one], the “hPPB (% free)” value in series [1] (setting [6]) came out at 1.2 % free. The IC50 in series [2] is 2.57 µM; in series [3] (setting [7]), 0.363 µM.

With `Cn1nc(C2CC2)cc1-c1c[nH]c(C2COc3ccc(Oc4ccnc5c4CCC(=O)N5)cc3C2)n1` (stereo not drawn) [Compound 125, 5-[3-[4-(5-cyclopropyl-2-methyl-pyrazol-3-yl)-1H-imidazol-2-yl]chroman-6-yl]oxy-3,4-dihydro-1H-1,8-naphthyridin-2-one], the IC50 in series [2] is 4.47 µM; in series [3] (setting [7]), 0.138 µM.
